Source: paper PMC11012829 (International Journal of Nanomedicine, 2024)

Columns and labels:
P-gp = conditions: cited from earlier work
[1] = format: in vivo, male Sprague-Dawley rats; conditions: oral, rats; for bioavailability after N-XBSD administration compared to the free drugs: same administration concentration

| mean AUC0-t in the N-XBSD group versus free drugs group ([1]; p<0.05) | bioavailability after N-XBSD administration compared to the free drugs [1] | mean AUC0-t increased in the N-XBSD group compared to the free drugs ([1]; N-XBSD vs free drugs) [%] | Compound | P-gp substrate (P-gp) |
| --- | --- | --- | --- | --- |
| significantly higher | significantly higher | – | O=C1C[C@@H](c2ccc(O[C@@H]3O[C@H](CO)[C@@H](O)[C@H](O)[C@H]3O)cc2)Oc2cc(O)ccc21 [Liquiritin, liquiritin] | substrates of P-gp |
| – | significantly higher | 122.73 | OC[C@H]1O[C@@H](Oc2cc(O)cc(/C=C/c3ccc(O[C@@H]4O[C@H](CO)[C@@H](O)[C@H](O)[C@H]4O)cc3O)c2)[C@H](O)[C@@H](O)[C@@H]1O [Mulberroside A, mulberroside A] | substrates of P-gp |
